According to US9040527B2, “Pyrimidinediamine kinase inhibitors” (Rigel Pharmaceuticals, Inc., priority 2008, dated 2015):
Counter-ions that a name gives are not always drawn. Like-named read-outs stand apart in the source and are kept apart here.

Molecular target: PLK1 (Homo sapiens, UniProt P53350)
Test: In vitro PLK1 ELISA assay (biochemical)
Set-up: purchased Cell Signalling 7728
Method: Inhibition of PLK1 was measured by quantifying phosphorylation of PLK1 substrates using chemiluminescent and fluorogenic probes. The protocols for these assays are provided below.
In Vitro PLK1 ELISA Assay
1. Preparation of Assay Plates.
Costar 96-well black or white solid flat high binding plates (Fisher Scientific, Catalog No. 07-200-591) were coated with Neutravidin (Pierce, Catalog No. 31000) using the following protocol. A 0.01 mg/mL solution of Neutravidin in 1× Phosphate Buffered Saline (“PBS”, Cellgro/Mediatech, Catalog No. 21-040-CV) was added to each well (100 μL/well) and was incubated for 18-24 hours at 4° C. The plates were then washed with 1× Phosphate Buffer Saline—Tween (“PBST”, Calbiochem, Catalog No. 524653) buffer using a plate washer. The plates were treated with bovine serum albumin (“BSA”, Sigma, Catalog No. A7906) to block non-specific binding sites, by adding a 2% BSA solution in 1×PBST buffer to each well (100 μL/well) and incubating the plates for 1 hour at room temperature. The plates were then washed with 1×PBST buffer using a plate washer.
2. PLK1-Catalyzed Phosphorylation Reaction
An aqueous buffer solution A having the following composition was prepared:
20 mM HEPES (Cellgro/Mediatech, Catalog No. 25-060Ci), pH 7.2;
5 mM MgCl2 (Sigma, Catalog No. M2393);
2 mM MnCl2.4H2O (EM Biosciences, Catalog No. MX0185-2);
1 mM Dithiothreitol (“DTT”, Fluka, Catalog No. B4184).
Next, the substrate solution B was prepared by adding 2.6 μL of 10 mM ATP (Sigma, Catalog No. A7699) and 6.4 μL of the 1 mM PLK1 substrate, CHK2-derived peptide Biotin-SSLETVSTQELYSIP (custom synthesized at Anaspec) SEQ ID: No. 1, to 4691 μL of the buffer solution A. The concentration of the ATP in solution B is 5.44 μM (1.36×); the concentration of the PLK1 substrate in solution B is 1.36 μM (1.36×).
Compound solutions C of varying concentrations for each compound were prepared by dissolving each compound in dimethylsulfoxide (DMSO, Sigma, Catalog No. D2650) to varying concentrations, followed by adding 2 μL of each solution to 38 μL of the buffer solution A, thereby forming 10× compound solutions in 5% DMSO.
A PLK1 solution D was prepared by adding 8.4 μL of 100 μg/mL PLK1 (Cell Signalling, Catalog No. 7728) to 1392 μL of the buffer solution A, thereby forming 0.6 μg/mL (6×) PLK1 solution.
The aqueous 1.36× substrate solution B was added to each well (44 μL/well) resulting in binding of the substrate to the plate via biotin/neutravidin interaction. Then 10× compound solutions C for each tested compound at each tested concentration were added to each well (6 μL/well). Next, 6×PLK1 solution D was added to each well (10 μL/well).
The final concentrations of tested compounds in each well were 10 μM, 3.3 μM, 1.1 μM, 0.36 μM, 0.12 μM, 0.04 μM, 0.014 μM, and 0.005 μM.
The obtained reaction mixtures were incubated in the wells for 45 minutes at room temperature, allowing PLK1-catalyzed phosphorylation of the substrate to proceed. The plates were then washed with 1×PBST solution using a plate washer, such that the bound phosphorylated or unphosphorylated substrate remains attached to the wells upon washing.
The washed plates were developed by treating the plates with a primary antibody that is specific for the phosphorylated substrate, followed by treatment with a secondary antibody that is specific for the primary antibody, and that is capable of catalyzing a reaction that results in a chemiluminescent readout. The chemiluminescent readout was used to quantify the substrate phosphorylation, and, consequently, to determine IC50 values for PLK1 inhibition, and was measured using a luminometer (Perkin Elmer/Wallac plate reader). The plate development protocol is described below.
A mixed antibody solution E was prepared by adding 1 μL of the primary antibody, rabbit p-CHK2(T68) (Rockland, Catalog No. 401280), and 1 μL of the secondary antibody, HRP-goat anti-rabbit IgG (Jackson Immunoresearch Catalog No. 111-035-003) to 10000 μL of 0.1% BSA in 1×PBST buffer. […]

[1] = ELISA, CHK2-derived peptide substrate, read-out: PLK1 IC50 (μM) biochemical assay
[2] = read-out: IC50 in biochemical in vitro PLK1 ELISA assay (less than 10 μM)
[3] = read-out: IC50 in biochemical ELISA assay (less than 0.01 μM)

PLK1, sequence (P53350 whole entry): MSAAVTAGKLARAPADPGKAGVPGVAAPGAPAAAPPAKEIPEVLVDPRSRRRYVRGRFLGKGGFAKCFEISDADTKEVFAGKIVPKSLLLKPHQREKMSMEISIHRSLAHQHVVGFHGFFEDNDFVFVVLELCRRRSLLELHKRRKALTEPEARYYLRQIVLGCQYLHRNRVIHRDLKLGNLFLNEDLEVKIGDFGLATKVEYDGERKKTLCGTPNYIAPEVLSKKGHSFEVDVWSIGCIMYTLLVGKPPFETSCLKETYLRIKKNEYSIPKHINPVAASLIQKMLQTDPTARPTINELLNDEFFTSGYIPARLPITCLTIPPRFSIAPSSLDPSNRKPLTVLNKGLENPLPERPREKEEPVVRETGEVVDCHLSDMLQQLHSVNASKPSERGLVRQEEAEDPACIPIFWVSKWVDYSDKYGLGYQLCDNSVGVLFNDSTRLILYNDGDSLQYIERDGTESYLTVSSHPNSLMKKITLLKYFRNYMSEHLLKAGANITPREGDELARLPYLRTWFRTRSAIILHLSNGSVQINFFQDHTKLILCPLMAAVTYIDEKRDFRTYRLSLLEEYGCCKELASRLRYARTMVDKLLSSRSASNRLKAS

Row | IC50 [1] | IC50 [2] | IC50 [3] | SMILES
1 | < 0.5 µM | < 10 µM |  | COc1cc(Nc2ncc(F)c(Nc3ccc4c(n3)NC(=O)CO4)n2)cc(N2CCN(C)CC2)c1 [compound 3, 6-(5-fluoro-2-(3-methoxy-5-(4-methylpiperazin-1-yl)phenylamino)pyrimidin-4-ylamino)-2H-pyrido[3,2-b][1,4]oxazin-3(4H)-one]
2 | 5 to 10 µM | < 10 µM |  | CN1CCN(c2cccc(Nc3ncc(F)c(N(CC4CCC4)c4ccc5c(n4)NCCO5)n3)c2)CC1 [compound 4, N4-(cyclobutylmethyl)-N4-(3,4-dihydro-2H-pyrido[3,2-b][1,4]oxazin-6-yl)-5-fluoro-N2-(3-(4-methylpiperazin-1-yl)phenyl)pyrimidine-2,4-diamine]
3 | < 0.5 µM | < 10 µM | < 0.01 µM | COc1cc(Nc2ncc(F)c(Nc3ccc4c(n3)NCCO4)n2)cc(N2CCN(C)CC2)c1 [compound 5, N4-(3,4-dihydro-2H-pyrido[3,2-b][1,4]oxazin-6-yl)-5-fluoro-N2-(3-methoxy-5-(4-methylpiperazin-1-yl)phenyl)pyrimidine-2,4-diamine]
4 | < 0.5 µM | < 10 µM | < 0.01 µM | CN1CCN(c2cccc(Nc3ncc(C(F)(F)F)c(Nc4ccc5c(n4)NC(=O)CO5)n3)c2)CC1 [compound 6, 6-(2-(3-(4-methylpiperazin-1-yl)phenylamino)-5-(trifluoro-methyl)pyrimidin-4-ylamino)-2H-pyrido[3,2-b][1,4]oxazin-3(4H)-one]
5 | ≥ 10 µM |  |  | CN1CCN(c2cccc(Nc3ncc(F)c(N(CC4CCCCC4)c4ccc5c(n4)NCCO5)n3)c2)CC1 [compound 7, N4-(cyclohexylmethyl)-N4-(3,4-dihydro-2H-pyrido[3,2-b][1,4]oxazin-6-yl)-5-fluoro-N2-(3-(4-methylpiperazin-1-yl)phenyl)pyrimidine-2,4-diamine]
6 | ≥ 10 µM |  |  | CC(C)c1cc(Nc2ncc(F)c(Nc3ccc4c(n3)NC(=O)CO4)n2)ccc1N1CC2CC1CN2C (stereo not drawn) [compound 8, 6-(5-fluoro-2-(3-isopropyl-4-(5-methyl-2,5-diazabicyclo[2.2.1]heptan-2-yl)phenylamino)pyrimidin-4-ylamino)-2H-pyrido[3,2-b][1,4]oxazin-3(4H)-one]
7 | ≥ 10 µM |  |  | CN1CCN(c2cccc(Nc3ncc(F)c(N(c4ccc5c(n4)NCCO5)C4CCCCC4)n3)c2)CC1 [compound 9, N4-cyclohexyl-N4-(3,4-dihydro-2H-pyrido[3,2-b][1,4]oxazin-6-yl)-5-fluoro-N2-(3-(4-methylpiperazin-1-yl)phenyl)pyrimidine-2,4-diamine]
8 | ≥ 10 µM |  |  | CC(C)c1cc(Nc2ncc(F)c(Nc3ccc4c(n3)NCCO4)n2)ccc1N1CC2CC1CN2C (stereo not drawn) [compound 10, N4-(3,4-dihydro-2H-pyrido[3,2-b][1,4]oxazin-6-yl)-5-fluoro-N2-(3-isopropyl-4-(5-methyl-2,5-diazabicyclo[2.2.1]heptan-2-yl)phenyl)pyrimidine-2,4-diamine]
9 | ≥ 10 µM |  |  | COC(=O)c1cnc(Nc2cccc(N3CCN(C)CC3)c2)nc1Nc1ccc2c(n1)NCCO2 [compound 11, methyl 4-(3,4-dihydro-2H-pyrido[3,2-b][1,4]oxazin-6-ylamino)-2-(3-(4-methylpiperazin-1-yl)phenylamino)pyrimidine-5-carboxylate]
10 | ≥ 10 µM |  |  | CN1CCN(c2cccc(Nc3ncc(C(=O)O)c(Nc4ccc5c(n4)NCCO5)n3)c2)CC1 [compound 12, 4-(3,4-dihydro-2H-pyrido[3,2-b][1,4]oxazin-6-ylamino)-2-(3-(4-methyl-piperazin-1-yl)phenyl-amino)pyrimidine-5-carboxylic acid]
11 | ≥ 10 µM |  |  | CN1CCN(c2cccc(Nc3nccc(Nc4ccc5c(n4)NC(=O)CO5)n3)c2)CC1 [compound 13, 6-(2-(3-(4-methylpiperazin-1-yl)phenylamino)pyrimidin-4-ylamino)-2H-pyrido[3,2-b][1,4]oxazin-3(4H)-one]
12 | ≥ 10 µM |  |  | CN1CCN(c2cc(Nc3ncc(F)c(Nc4ccc5c(n4)NC(=O)CO5)n3)cc(OCC3CCC3)c2)CC1 [compound 14, 6-(2-(3-(cyclobutylmethoxy)-5-(4-methylpiperazin-1-yl)phenylamino)-5-fluoropyrimidin-4-ylamino)-2H-pyrido[3,2-b][1,4]oxazin-3(4H)-one]
13 | 0.5 to 5 µM | < 10 µM |  | CN1CCN(c2cccc(Nc3ncc(F)c(N(c4ccc5c(n4)NCCO5)C4CCC4)n3)c2)CC1 [compound 15, N4-cyclobutyl-N4-(3,4-dihydro-2H-pyrido[3,2-b][1,4]oxazin-6-yl)-5-fluoro-N2-(3-(4-methylpiperazin-1-yl)phenyl)pyrimidine-2,4-diamine]
14 | < 0.5 µM | < 10 µM |  | CN1CCN(c2cc(Nc3ncc(F)c(Nc4ccc5c(n4)NCCO5)n3)cc(OCC3CCC3)c2)CC1 [compound 16, N2-(3-(cyclobutylmethoxy)-5-(4-methylpiperazin-1-yl)phenyl)-N4-(3,4-dihydro-2H-pyrido[3,2-b][1,4]oxazin-6-yl)-5-fluoropyrimidine-2,4-diamine]
15 |  |  | < 0.01 µM | CN1CCN(c2cccc(Nc3ncc(F)c(Nc4ccc5c(n4)NC(=O)CO5)n3)c2)CC1 [compound 19, 6-(5-fluoro-2-(3-(4-methylpiperazin-1-yl)phenylamino)pyrimidin-4-ylamino)-2H-pyrido[3,2-b][1,4]oxazin-3(4H)-one hydrochloride]
16 | ≥ 10 µM |  |  | CN1CC2CC1CN2c1ccc(Nc2ncc(F)c(Nc3ccc4c(n3)NCCO4)n2)cc1C(F)(F)F (stereo not drawn) [compound 57, N4-(3,4-dihydro-2H-pyrido[3,2-b][1,4]oxazin-6-yl)-5-fluoro-N2-(4-(5-methyl-2,5-diazabicyclo[2.2.1]heptan-2-yl)-3-(trifluoro-methyl)phenyl)pyrimidine-2,4-diamine]
17 | 0.5 to 5 µM | < 10 µM |  | Cc1cc(Nc2ncc(F)c(Nc3ccc4c(n3)N(CC3CC3)C(=O)CO4)n2)ccc1N1CCN(C)CC1 [compound 111, 4-(cyclopropylmethyl)-6-(5-fluoro-2-(3-methyl-4-(4-methylpiperazin-1-yl)phenylamino)pyrimidin-4-ylamino)-2H-pyrido[3,2-b][1,4]oxazin-3(4H)-one]
18 |  |  | < 0.01 µM | CN1CCN(c2cccc(Nc3ncc(F)c(Nc4ccc5c(n4)NCCO5)n3)c2)CC1 [compound 168, N4-(3,4-dihydro-2H-pyrido[3,2-b][1,4]oxazin-6-yl)-5-fluoro-N2-(3-(4-methylpiperazin-1-yl)phenyl)pyrimidine-2,4-diamine p-toluene sulfonic acid salt]
